US20160220677A1, “STABLE AQUEOUS COMPOSITIONS OF PROSTGLANDIN AGONIST PRODRUGS AND METHODS FOR USE THEREOF” (Allergan, Inc., priority 2009, published 2016)

Assay: Aqueous stability of formulations, % recovery by HPLC
Assay type: physicochemical
Conditions: 30° C.; 45 days; each formulation (Formulations 1-4)
Method: The aqueous stability of invention compositions was evaluated using Compounds 2 and 3.
The formulations were analyzed by HPLC with the following measurement parameters:
Column: BioWidePore C18 (SUPELCO), 4.6 mm×25 cm, 5 μm Mobile Phase A: 0.1% (V/V) trifluoroacetic acid (TFA) in di-water, 0.8 micron filtered Mobile Phase B: 100% acetonitrile, 0.8 micron filtered Column temp: Ambient Injection volume: 30 μL
Flow: 1.0 mL/min Run time: 25 minutes Sample diluent: 50% acetonitrile in di-water
Using the above HPLC parameters, the following stability data was generated: […]

For CCCCCC(O)c1ccc(N2C(=O)CC[C@@H]2CCCc2ccc(C(=O)OCCO)s2)cc1 (stereo partly shown) [Compound 2], the “stability in each formulation” value was “stable”.
